In US4785090A, “Cephalosporin derivatives” (Meiji Seika Kaisha, Ltd., priority 1984, dated 1988):
Where a name gives a salt, the structure may show the parent alone. Read-outs that look alike come from different tables or passages of the source.

How the values were obtained:
[1] = system: Salmonella typhimurium LT2; experiment: Minimum Growth Inhibitory Concentration (MIC), Salmonella typhimurium LT2; format: cell-based; details: Salmonella enterica, read-out: Minimum Growth Inhibitory Concentration (MIC)
Excerpt: (§1) Minimum Growth Inhibitory Concentration (MIC) mcg/ml
7. Salmonella typhimurium LT2

[2] = system: Staphylococcus aureus 209PJC1; experiment: Minimum Growth Inhibitory Concentration (MIC), Staphylococcus aureus 209PJC1; format: cell-based
Excerpt: as §1
1. Staphylococcus aureus 209PJC1
as §1
2. Staphylococcus aureus 209 PJC1

Proteus mirabilis GN 79 = experiment: Minimum Growth Inhibitory Concentration (MIC), Proteus mirabilis GN 79; format: cell-based
Excerpt: as §1
6. Proteus mirabilis GN 79

Proteus rettgeri GN624 = experiment: Minimum Growth Inhibitory Concentration (MIC), Proteus rettgeri GN624; format: cell-based; details: Providencia rettgeri
Excerpt: as §1
9. Proteus rettgeri GN624

[3] = system: Staphylococcus aureus Smith; experiment: Minimum Growth Inhibitory Concentration (MIC), Staphylococcus aureus Smith; format: cell-based; details: read-out: Minimum Growth Inhibitory Concentration (MIC)
Excerpt: as §1
1. Staphylococcus aureus Smith

[4] = system: Escherichia coli NIHJ JC2; experiment: Minimum Growth Inhibitory Concentration (MIC), Escherichia coli NIHJ JC2; format: cell-based
Excerpt: as §1
3. Escherichia coli NIHJ JC2

[5] = system: Klebsiella pneumoniae PCI 602; experiment: Minimum Growth Inhibitory Concentration (MIC), Klebsiella pneumoniae PCI 602; format: cell-based
Excerpt: as §1
5. Klebsiella pneumoniae PCI 602

Eshcerichia coli GN 206 = experiment: Minimum Growth Inhibitory Concentration (MIC), Escherichia coli GN 206; format: cell-based
Excerpt: as §1
4. Eshcerichia coli GN 206

[6] = Serum concentration in mice after subcutaneous administration; format: in vivo; details: mouse, sc, subcutaneous 25 mg/kg
Description: The experiment was conducted by using 3 mice (average body weight 20 g) in each group, subcutaneously administering 25 mg/kg of the sample, taking blood samples at predetermined intervals, separating the serum and measuring the sample concentration by an antibacterial activity test using Escherichia coli as a testing bactera.

[7] = system: Serratia marcescens No. 2; experiment: Minimum Growth Inhibitory Concentration (MIC), Serratia marcescens No. 2; format: cell-based
Excerpt: as §1
10. Serratia marcescens No. 2

Proteus vulgaris GN 76 = experiment: Minimum Growth Inhibitory Concentration (MIC), Proteus vulgaris GN 76; format: cell-based
Excerpt: as §1
10. Proteus vulgaris GN 76
as §1
8. Proteus vulgaris GN 76

[8] = Staphylococcus aureus, 209PJC1, read-out: Minimum Growth Inhibitory Concentration (MIC)
[9] = Proteus mirabilis, GN79, read-out: Minimum Growth Inhibitory Concentration (MIC)
[10] = GN624, read-out: Minimum Growth Inhibitory Concentration (MIC)
[11] = Escherichia coli, NIHJJC2, read-out: Minimum Growth Inhibitory Concentration (MIC)
[12] = Klebsiella pneumoniae, PCI602, read-out: Minimum Growth Inhibitory Concentration (MIC)
[13] = GN206, read-out: Minimum Growth Inhibitory Concentration (MIC)
[14] = Serratia marcescens, NO.2, read-out: Minimum Growth Inhibitory Concentration (MIC)
[15] = Proteus vulgaris, GN76, read-out: Minimum Growth Inhibitory Concentration (MIC)
[16] = Table 2, bacterium 7: Salmonella typhimurium LT2
[17] = Table 2, bacterium 2: Staphylococcus aureus 209 PJC1, read-out: Minimum Growth Inhibitory Concentration (MIC)
[18] = GN79, Table 2, bacterium 6: Proteus mirabilis GN 79, read-out: Minimum Growth Inhibitory Concentration (MIC)
[19] = Table 2, bacterium 9: Proteus rettgeri GN624, read-out: Minimum Growth Inhibitory Concentration (MIC)
[20] = Table 2, bacterium 1: Staphylococcus aureus Smith
[21] = NIHJJC2, Table 2, bacterium 3: Escherichia coli NIHJ JC2, read-out: Minimum Growth Inhibitory Concentration (MIC)
[22] = PCI602, Table 2, bacterium 5: Klebsiella pneumoniae PCI 602, read-out: Minimum Growth Inhibitory Concentration (MIC)
[23] = GN206, Table 2, bacterium 4: Eshcerichia coli GN 206, read-out: Minimum Growth Inhibitory Concentration (MIC)
[24] = Table 2, bacterium 10: Serratia marcescens No. 2, read-out: Minimum Growth Inhibitory Concentration (MIC)
[25] = GN76, Table 2, bacterium 8: Proteus vulgaris GN 76, read-out: Minimum Growth Inhibitory Concentration (MIC)

In the case of `CO/N=C(\C(=O)N[C@@H]1C(=O)N2C(C(=O)O)=C(CSc3cc[n+](CC(=O)O)cc3)CS[C@H]12)c1csc(N)n1.[Na+]`, the MIC ([1]; TYPHIMURIUM) is reported as 0.025 µg/mL, the MIC [2, 8] is reported as 0.78 µg/mL and the MIC (Proteus mirabilis GN 79; [9]) is reported as 0.2 µg/mL. For the same compound, the MIC (Proteus rettgeri GN624; [10]) was 0.39 µg/mL, the MIC ([3]; Staphylococcus aureus) was 1.56 µg/mL and the MIC [4, 11] was 1.56 µg/mL. The MIC [5, 12] was 0.025 µg/mL, the MIC (Eshcerichia coli GN 206; [13]) was 0.2 µg/mL and the concentration at 0.5 h ([6]; 1/2 hr) was 12500 ng/mL. For the same compound, the concentration at 0.25 h ([6]; 1/4 hr) was 28000 ng/mL, the concentration at 5 min ([6]; 1/12 hr) was 20000 ng/mL and the concentration at 1 h ([6]; 1 hr) was 2200 ng/mL. The MIC [7, 14] was 0.05 µg/mL and the MIC (Proteus vulgaris GN 76; [15]) was 0.05 µg/mL.
For `Nc1nc(/C(=N/OCC(=O)O)C(=O)N[C@@H]2C(=O)N3C(C(=O)O)=C(CSc4cc[n+](CC(=O)O)cc4)CS[C@H]23)cs1.[Na+]` [Example 29, (6R,7R)-7-[(Z)-2-(2-Aminothiazol-4-yl)-2-(carboxymethoxyimino)acetamido]-3-[(1-carboxymethylpyridinium-4-yl)thiomethyl]-ceph-3-em-4-carboxylic acid sodium salt], the MIC [1, 16] was 0.2 µg/mL, the MIC [2, 8] was 0.39 µg/mL and the MIC (Proteus mirabilis GN 79; [9]) was 0.79 µg/mL. For the same compound, the MIC (Proteus rettgeri GN624; [10]) was 3.13 µg/mL, the MIC ([3]; Staphylococcus aureus) was 0.78 µg/mL and the MIC [4, 11] was 0.39 µg/mL. For the same compound, the MIC [5, 12] was 0.1 µg/mL, the MIC (Eshcerichia coli GN 206; [13]) was 0.39 µg/mL and the MIC [7, 14] was 0.39 µg/mL. It also gave an MIC (Proteus vulgaris GN 76; [15]) of 0.2 µg/mL.
For `C=CCO/N=C(\C(=O)N[C@@H]1C(=O)N2C(C(=O)O)=C(CSc3cc[n+](CC(=O)O)cc3)CS[C@H]12)c1csc(N)n1.[Na+]` [Example 30, (6R,7R)-7-[(Z)-2-(2-Aminothiazol-4-yl)-2-(allyloxyimino)acetamido]-3-[(1-carboxymethylpyridinium-4-yl)thiomethyl]-ceph-3-em-4-carboxylic acid sodium salt], the MIC [1, 16] was 0.1 µg/mL, the MIC [2, 8] was 12.5 µg/mL and the MIC (Proteus mirabilis GN 79; [9]) was 0.05 µg/mL. For the same compound, the MIC (Proteus rettgeri GN624; [10]) was 0.2 µg/mL, the MIC ([3]; Staphylococcus aureus) was 25 µg/mL and the MIC [4, 11] was 25 µg/mL. The MIC [5, 12] was 0.1 µg/mL, the MIC (Eshcerichia coli GN 206; [13]) was 1.56 µg/mL and the MIC [7, 14] was 0.1 µg/mL. For the same compound, the MIC (Proteus vulgaris GN 76; [15]) was 0.05 µg/mL.
Compound `CCO/N=C(\C(=O)N[C@@H]1C(=O)N2C(C(=O)[O-])=C(CSc3cc[n+](C(C)C(=O)O)cc3)CS[C@H]12)c1csc(N)n1` (stereo partly drawn) [Example 31, (6R,7R)-7-[(Z)-2-(2-Aminothiazol-4-yl)-2-ethoxyiminoacetamido]-3-[1-(1-carboxy-1-ethylpyridinium-4-yl)thiomethyl]-ceph-3-em-4-carboxylic acid sodium salt] has an MIC [1, 16] of 0.2 µg/mL, an MIC [2, 17] of 3.13 µg/mL and an MIC (Proteus mirabilis GN 79; [18]) of 0.78 µg/mL. It also gave an MIC (Proteus rettgeri GN624; [19]) of 0.78 µg/mL, an MIC [3, 20] of 3.13 µg/mL and an MIC [4, 21] of 6.25 µg/mL. The MIC [5, 22] was 0.2 µg/mL, the MIC (Eshcerichia coli GN 206; [23]) was 0.39 µg/mL and the MIC [7, 24] was 0.39 µg/mL. The MIC (Proteus vulgaris GN 76; [25]) was 1.56 µg/mL.
For `CCO/N=C(\C(=O)N[C@@H]1C(=O)N2C(C(=O)[O-])=C(CSc3cc[n+](C(C(=O)O)c4ccccc4)cc3)CS[C@H]12)c1csc(N)n1` (stereo partly drawn) [Example 32, (6R,7R)-7-[(Z)-2-(2-Aminothiazol-4-yl)-2-ethoxyiminoacetamido]-3-[(1-carboxybenzylpyridinium-4-yl)thiomethyl]-ceph-3-em-4-carboxylic acid sodium salt], the MIC [1, 16] was 0.39 µg/mL, the MIC [2, 17] was 1.56 µg/mL and the MIC (Proteus mirabilis GN 79; [18]) was 3.13 µg/mL. The MIC (Proteus rettgeri GN624; [19]) was 0.39 µg/mL, the MIC [3, 20] was 1.56 µg/mL and the MIC [4, 21] was 0.39 µg/mL. It also gave an MIC [5, 22] of 0.2 µg/mL, an MIC (Eshcerichia coli GN 206; [23]) of 0.78 µg/mL and an MIC [7, 24] of 0.78 µg/mL. It also gave an MIC (Proteus vulgaris GN 76; [25]) of 0.78 µg/mL.
In the case of `CCO/N=C(\C(=O)N[C@@H]1C(=O)N2C(C(=O)[O-])=C(CSc3cccc[n+]3CC(=O)O)CS[C@H]12)c1csc(N)n1` [Example 33, sodium salt], the MIC [1, 16] is reported as 0.05 µg/mL, the MIC [2, 17] is reported as 0.78 µg/mL and the MIC (Proteus mirabilis GN 79; [18]) is reported as 0.39 µg/mL. It also gave an MIC (Proteus rettgeri GN624; [19]) of 6.25 µg/mL, an MIC [3, 20] of 1.56 µg/mL and an MIC [4, 21] of 0.05 µg/mL. For the same compound, the MIC [5, 22] was 0.05 µg/mL, the MIC (Eshcerichia coli GN 206; [23]) was 0.78 µg/mL and the MIC [7, 24] was 0.1 µg/mL. It also gave an MIC (Proteus vulgaris GN 76; [25]) of 0.39 µg/mL.
